Laboratory results reported in ChEMBL document CHEMBL4145594, “Discovery of N-Alkyl Piperazine Side Chain Based CXCR4 Antagonists with Improved Drug-like Properties” (ACS Med Chem Lett, 2018).
Calls of active or inactive are those of the source. No cut-off for these calls is given here.

What was measured:
[1] = target: T1, C-X-C chemokine receptor type 4 (Homo sapiens, UniProt P61073); assay: Agonist activity at CXCR4 in human CCRF-CEM cells measured for 90 secs by calcium flux assay; format: functional, cell-based
T1 sequence (P61073 whole entry): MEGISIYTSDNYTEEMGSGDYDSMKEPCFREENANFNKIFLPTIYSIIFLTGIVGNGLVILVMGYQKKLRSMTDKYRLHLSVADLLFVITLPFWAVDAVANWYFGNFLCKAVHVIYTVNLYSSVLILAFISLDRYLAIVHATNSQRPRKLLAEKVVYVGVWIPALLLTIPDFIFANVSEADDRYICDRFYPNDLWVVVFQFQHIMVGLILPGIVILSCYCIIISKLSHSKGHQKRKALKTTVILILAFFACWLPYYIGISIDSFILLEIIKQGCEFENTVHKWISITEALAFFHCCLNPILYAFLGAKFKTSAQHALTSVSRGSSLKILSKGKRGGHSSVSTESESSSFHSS

[2] = target: Muscarinic acetylcholine receptor; assay: Antagonist activity at mAChR in human CCRF-CEM cells assessed as inhibition of acetylcholine-induced calcium flux pretreated for 25 mins followed by acetylcholine addition measured for 90 secs by calcium-dye based assay; format: functional, cell-based
[3] = Stability in mouse liver microsomes assessed as parent compound remaining at 0.5 uM after 10 mins by LC-MS analysis
[4] = Stability in human liver microsomes assessed as parent compound remaining at 0.5 uM after 10 mins by LC-MS analysis
[5] = target: Cytochrome P450 2D6 (Homo sapiens, UniProt P10635)
Chain of Cytochrome P450 2D6 (P10635 whole entry): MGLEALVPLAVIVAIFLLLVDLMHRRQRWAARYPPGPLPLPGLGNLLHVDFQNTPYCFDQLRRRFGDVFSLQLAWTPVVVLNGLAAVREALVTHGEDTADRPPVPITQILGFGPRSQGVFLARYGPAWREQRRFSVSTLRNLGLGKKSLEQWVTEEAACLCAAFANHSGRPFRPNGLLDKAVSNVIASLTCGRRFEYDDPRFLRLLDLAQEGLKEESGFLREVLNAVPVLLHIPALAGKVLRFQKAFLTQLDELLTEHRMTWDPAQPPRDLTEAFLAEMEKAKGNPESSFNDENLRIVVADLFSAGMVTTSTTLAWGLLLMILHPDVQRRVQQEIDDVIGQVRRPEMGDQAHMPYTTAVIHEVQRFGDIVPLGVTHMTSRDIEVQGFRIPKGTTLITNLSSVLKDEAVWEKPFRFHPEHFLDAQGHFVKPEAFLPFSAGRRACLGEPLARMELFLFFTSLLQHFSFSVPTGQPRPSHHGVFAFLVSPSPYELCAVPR
Description: Inhibition of recombinant human CYP2D6 expressed in insect cell microsomes using AMMC as substrate pretreated for 30 mins followed by NADPH addition measured after 45 mins by fluorescence assay

[6] = target: T1, C-X-C chemokine receptor type 4; assay: Antagonist activity at CXCR4 in human CCRF-CEM cells assessed as inhibition of […]-induced calcium flux pretreated for 25 mins followed by […] addition measured for 90 secs by calcium-dye based assay; format: functional, cell-based
[7] = Stability in rat liver microsomes assessed as parent compound remaining at 0.5 uM after 10 mins by LC-MS analysis
[8] = target: Cytochrome P450 3A4 (Homo sapiens, UniProt P08684); assay: Inhibition of CYP3A4 (unknown origin); format: ADME
Chain of Cytochrome P450 3A4 (P08684 whole entry): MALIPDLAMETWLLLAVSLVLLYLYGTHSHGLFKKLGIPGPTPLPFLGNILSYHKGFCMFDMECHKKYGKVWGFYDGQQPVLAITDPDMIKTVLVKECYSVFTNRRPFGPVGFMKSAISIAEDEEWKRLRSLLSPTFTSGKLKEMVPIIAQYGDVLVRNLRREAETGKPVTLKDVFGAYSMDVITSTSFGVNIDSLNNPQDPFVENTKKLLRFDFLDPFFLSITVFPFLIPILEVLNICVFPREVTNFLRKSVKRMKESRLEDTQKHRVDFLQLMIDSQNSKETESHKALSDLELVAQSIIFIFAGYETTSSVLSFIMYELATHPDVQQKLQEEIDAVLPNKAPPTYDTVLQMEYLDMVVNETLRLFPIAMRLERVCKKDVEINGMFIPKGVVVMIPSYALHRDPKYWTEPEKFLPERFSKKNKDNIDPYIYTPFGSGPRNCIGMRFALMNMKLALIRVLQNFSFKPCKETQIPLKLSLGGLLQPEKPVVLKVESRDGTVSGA

[9] = in vitro; conditions: PAMPA, pH 7.4
Description: Permeability of the compound at pH 7.4 after 4 hrs by PAMPA

[10] = target: Mu-type opioid receptor (Homo sapiens, UniProt P35372); assay: Inhibition of mu opioid receptor (unknown origin)
Chain of Mu-type opioid receptor (P35372 whole entry): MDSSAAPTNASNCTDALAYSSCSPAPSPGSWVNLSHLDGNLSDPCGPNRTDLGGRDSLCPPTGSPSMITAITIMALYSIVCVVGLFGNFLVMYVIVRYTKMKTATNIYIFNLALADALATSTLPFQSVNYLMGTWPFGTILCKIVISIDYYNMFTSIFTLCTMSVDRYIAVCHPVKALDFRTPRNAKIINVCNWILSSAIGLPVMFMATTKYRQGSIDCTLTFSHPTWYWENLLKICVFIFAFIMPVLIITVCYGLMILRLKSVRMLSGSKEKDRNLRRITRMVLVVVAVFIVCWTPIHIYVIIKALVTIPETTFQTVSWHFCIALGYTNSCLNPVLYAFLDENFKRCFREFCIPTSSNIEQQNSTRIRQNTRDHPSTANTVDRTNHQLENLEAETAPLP

[11] = target: Acetylcholinesterase (Homo sapiens, UniProt P22303); assay: Inhibition of AChE (unknown origin)
Chain of Acetylcholinesterase (P22303 whole entry): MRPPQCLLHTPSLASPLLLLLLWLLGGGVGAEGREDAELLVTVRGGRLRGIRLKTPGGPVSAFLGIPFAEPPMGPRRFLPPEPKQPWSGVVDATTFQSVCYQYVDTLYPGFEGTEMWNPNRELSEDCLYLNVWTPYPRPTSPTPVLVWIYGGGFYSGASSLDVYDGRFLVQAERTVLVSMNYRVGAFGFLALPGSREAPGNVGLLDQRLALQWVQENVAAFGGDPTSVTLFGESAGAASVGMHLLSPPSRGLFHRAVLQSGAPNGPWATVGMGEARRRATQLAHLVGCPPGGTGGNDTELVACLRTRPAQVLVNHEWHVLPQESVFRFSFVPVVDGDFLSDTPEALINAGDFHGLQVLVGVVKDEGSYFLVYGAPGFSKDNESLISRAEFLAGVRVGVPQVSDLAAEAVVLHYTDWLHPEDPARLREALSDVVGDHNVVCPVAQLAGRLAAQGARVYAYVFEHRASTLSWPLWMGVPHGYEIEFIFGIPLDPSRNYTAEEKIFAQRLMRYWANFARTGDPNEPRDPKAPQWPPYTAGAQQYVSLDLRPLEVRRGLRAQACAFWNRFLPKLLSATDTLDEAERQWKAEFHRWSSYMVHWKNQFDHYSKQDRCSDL

[12] = target: Acetylcholine receptor subunit alpha (Homo sapiens, UniProt P02708); assay: Inhibition of nAChR alpha1 (unknown origin)
Chain of Acetylcholine receptor subunit alpha (P02708 whole entry): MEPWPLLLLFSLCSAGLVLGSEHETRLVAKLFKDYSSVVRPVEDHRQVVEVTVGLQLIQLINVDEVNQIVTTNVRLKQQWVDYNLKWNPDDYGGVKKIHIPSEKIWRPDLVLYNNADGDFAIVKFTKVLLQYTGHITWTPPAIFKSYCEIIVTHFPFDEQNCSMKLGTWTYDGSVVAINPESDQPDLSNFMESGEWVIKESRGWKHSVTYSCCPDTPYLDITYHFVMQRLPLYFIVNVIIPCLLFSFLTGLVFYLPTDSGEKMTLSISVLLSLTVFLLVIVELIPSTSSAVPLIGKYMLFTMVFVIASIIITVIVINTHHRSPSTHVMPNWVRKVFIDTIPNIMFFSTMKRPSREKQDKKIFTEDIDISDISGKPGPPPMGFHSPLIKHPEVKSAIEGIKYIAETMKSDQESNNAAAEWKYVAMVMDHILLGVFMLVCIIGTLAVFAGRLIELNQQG

[13] = target: T2, Alpha-2A adrenergic receptor (Homo sapiens, UniProt P08913); assay: Inhibition of adrenergic alpha2A receptor (unknown origin)
T2 sequence (P08913 whole entry): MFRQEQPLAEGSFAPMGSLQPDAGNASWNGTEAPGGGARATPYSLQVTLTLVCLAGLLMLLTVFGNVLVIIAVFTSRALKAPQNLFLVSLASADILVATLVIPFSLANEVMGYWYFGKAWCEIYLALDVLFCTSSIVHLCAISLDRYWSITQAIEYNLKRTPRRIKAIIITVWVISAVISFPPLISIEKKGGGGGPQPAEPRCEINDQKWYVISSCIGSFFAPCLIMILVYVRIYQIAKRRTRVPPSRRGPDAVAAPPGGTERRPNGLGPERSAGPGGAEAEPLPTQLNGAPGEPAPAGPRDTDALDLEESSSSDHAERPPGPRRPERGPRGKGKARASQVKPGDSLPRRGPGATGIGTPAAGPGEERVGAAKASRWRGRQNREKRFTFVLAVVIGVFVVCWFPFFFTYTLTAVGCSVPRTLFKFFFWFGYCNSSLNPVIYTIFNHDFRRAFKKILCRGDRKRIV

[14] = organism: Homo sapiens; assay: Therapeutic index, ratio of IC50 for adrenergic alpha2A receptor (unknown origin) to IC50 for CXCR4 in human CCRF-CEM cells; format: cell-based
[15] = organism: Homo sapiens; assay: Therapeutic index, ratio of IC50 for mu opioid receptor (unknown origin) to IC50 for CXCR4 in human CCRF-CEM cells; format: cell-based
[16] = organism: Homo sapiens; assay: Therapeutic index, ratio of IC50 for nAChR alpha1 (unknown origin) to IC50 for CXCR4 in human CCRF-CEM cells; format: cell-based
[17] = organism: Homo sapiens; assay: Therapeutic index, ratio of IC50 for AChE (unknown origin) to IC50 for CXCR4 in human CCRF-CEM cells; format: cell-based

c1ccc2c(c1)CN[C@@H](CN(CCCN1CCN(C3CC3)CC1)[C@H]1CCCc3cccnc31)C2
Activity [1]: inactive
IC50 [2]: > 17 µM
remaining at 10 min, 0.5 µM [3]: 3%
remaining at 10 min, 0.5 µM [4]: 21%
IC50 [5]: 6.04 µM
IC50 [6]: 0.05 µM
remaining at 10 min, 0.5 µM [7]: 2%
IC50 [8]: > 20 µM
Papp at 4 h [9]: 50.5 ×10⁻⁶ cm/s

c1ccc2c(c1)CN[C@@H](CN(CC[C@@H]1CCCNC1)[C@H]1CCCc3cccnc31)C2
Activity [1]: inactive
IC50 [2]: > 14 µM
remaining at 10 min, 0.5 µM [3]: 23%
remaining at 10 min, 0.5 µM [4]: 75%
IC50 [5]: 0.03 µM
IC50 [6]: 0.161 µM
remaining at 10 min, 0.5 µM [7]: 28%
IC50 [8]: > 12 µM

CC(C)N1CCN(CCCN(C[C@H]2Cc3ccccc3CN2)[C@H]2CCCc3cccnc32)CC1
Activity [1]: inactive
IC50 [2]: > 17 µM
remaining at 10 min, 0.5 µM [3]: 58%
remaining at 10 min, 0.5 µM [4]: 46%
IC50 [5]: 6.65 µM
IC50 [6]: 0.062 µM
remaining at 10 min, 0.5 µM [7]: 4%
IC50 [8]: > 20 µM
Papp at 4 h [9]: 34.4 ×10⁻⁶ cm/s

c1ccc2c(c1)CN[C@@H](CN(CC1CCNCC1)[C@H]1CCCc3cccnc31)C2
Activity [1]: inactive
IC50 [2]: > 14 µM
remaining at 10 min, 0.5 µM [3]: 13%
remaining at 10 min, 0.5 µM [4]: 86%
IC50 [5]: 1.87 µM
IC50 [6]: 0.065 µM
remaining at 10 min, 0.5 µM [7]: 65%
IC50 [8]: > 12 µM

c1cnc2c(c1)CN[C@@H](CN(CCCN1CCNCC1)[C@H]1CCCc3cccnc31)C2
Activity [1]: inactive
IC50 [2]: > 17 µM
remaining at 10 min, 0.5 µM [3]: 78%
remaining at 10 min, 0.5 µM [4]: 79%
IC50 [5]: > 20 µM
IC50 [6]: 0.171 µM
remaining at 10 min, 0.5 µM [7]: 79%
IC50 [8]: > 20 µM
Papp at 4 h [9]: 0.9 ×10⁻⁶ cm/s

NCCCCN(C[C@H]1Cc2ccccc2CN1)[C@H]1CCCc2cccnc21
Activity [1]: inactive
IC50 [10]: 14.9 µM
IC50 [11]: > 30 µM
IC50 [12]: > 30 µM
IC50 [13]: 3.7 µM

CCN1CCN(CCCN(C[C@H]2Cc3ccccc3CN2)[C@H]2CCCc3cccnc32)CC1
Activity [1]: inactive
IC50 [2]: > 17 µM
remaining at 10 min, 0.5 µM [3]: 19%
remaining at 10 min, 0.5 µM [4]: 59%
IC50 [5]: > 20 µM
IC50 [6]: 0.033 µM
remaining at 10 min, 0.5 µM [7]: 1%
IC50 [8]: > 20 µM
Papp at 4 h [9]: 31.7 ×10⁻⁶ cm/s

CN1CCN(CCCN(C[C@H]2Cc3ccccc3CN2)[C@H]2CCCc3cccnc32)CC1
Activity [1]: inactive
IC50 [2]: 6.56 µM
remaining at 10 min, 0.5 µM [3]: 53%
remaining at 10 min, 0.5 µM [4]: 72%
IC50 [5]: 5.6 µM
IC50 [6]: 0.125 µM
remaining at 10 min, 0.5 µM [7]: 10%
IC50 [8]: > 20 µM
Papp at 4 h [9]: 36 ×10⁻⁶ cm/s

c1ccc2c(c1)CN[C@H](CN(CCCN1CCNCC1)[C@H]1CCCc3cccnc31)C2
Activity [1]: inactive
IC50 [2]: > 17 µM
remaining at 10 min, 0.5 µM [3]: 88%
remaining at 10 min, 0.5 µM [4]: 99%
IC50 [5]: 1.4 µM
IC50 [6]: 1.15 µM
remaining at 10 min, 0.5 µM [7]: 88%
IC50 [8]: > 20 µM
Papp at 4 h [9]: 1.6 ×10⁻⁶ cm/s

NC(=O)N1CCN(CCCN(C[C@H]2Cc3ccccc3CN2)[C@H]2CCCc3cccnc32)CC1
Activity [1]: inactive
IC50 [2]: 4.98 µM
remaining at 10 min, 0.5 µM [3]: 42%
remaining at 10 min, 0.5 µM [4]: 79%
IC50 [5]: 4.14 µM
IC50 [6]: 0.959 µM
remaining at 10 min, 0.5 µM [7]: 4%
IC50 [8]: > 20 µM
Papp at 4 h [9]: 6.7 ×10⁻⁶ cm/s

CN1CCN(CCCN(CC2Cc3ccccc3CN2C)[C@H]2CCCc3cccnc32)CC1 (single isomer, unassigned)
Activity [1]: inactive
IC50 [2]: > 17 µM
remaining at 10 min, 0.5 µM [3]: 43%
remaining at 10 min, 0.5 µM [4]: 60%
IC50 [5]: 5.14 µM
IC50 [6]: 0.536 µM
remaining at 10 min, 0.5 µM [7]: 2%
IC50 [8]: > 20 µM
Papp at 4 h [9]: 51.3 ×10⁻⁶ cm/s

c1cnc2c(c1)CCC[C@@H]2N(CCCN1CCNCC1)Cc1cc2ccccc2cn1
Activity [1]: inactive
IC50 [2]: 3.2 µM
remaining at 10 min, 0.5 µM [3]: 74%
remaining at 10 min, 0.5 µM [4]: 66%
IC50 [5]: 2.96 µM
IC50 [6]: 0.017 µM
remaining at 10 min, 0.5 µM [7]: 59%
IC50 [8]: > 20 µM
Papp at 4 h [9]: 24.3 ×10⁻⁶ cm/s

c1cnc2c(c1)CN[C@H](CN(CCCN1CCNCC1)[C@H]1CCCc3cccnc31)C2
Activity [1]: inactive
IC50 [2]: > 17 µM
remaining at 10 min, 0.5 µM [3]: 63%
remaining at 10 min, 0.5 µM [4]: 100%
IC50 [5]: > 20 µM
IC50 [6]: 2.64 µM
remaining at 10 min, 0.5 µM [7]: 87%
IC50 [8]: > 20 µM

c1ccc2c(c1)CN[C@@H](CN(CCCN1CCNCC1)[C@H]1CCCc3cccnc31)C2
Ratio IC50 [14]: < 100
Ratio IC50 [15]: < 100
Activity [1]: inactive
IC50 [10]: > 30 µM
IC50 [2]: > 14 µM
remaining at 10 min, 0.5 µM [3]: 92%
remaining at 10 min, 0.5 µM [4]: 100%
Ratio IC50 [16]: < 100
IC50 [5]: 2.14 µM
IC50 [6]: 0.017 µM
remaining at 10 min, 0.5 µM [7]: 100%
IC50 [11]: > 30 µM
Ratio IC50 [17]: < 100
IC50 [12]: > 30 µM
IC50 [8]: > 12 µM
IC50 [13]: > 30 µM

c1cnc2c(c1)CCC[C@@H]2N(CCCN1CCNCC1)Cc1nc2ccccc2[nH]1
Activity [1]: inactive
IC50 [2]: > 17 µM
remaining at 10 min, 0.5 µM [3]: 68%
remaining at 10 min, 0.5 µM [4]: 63%
IC50 [5]: > 20 µM
remaining at 10 min, 0.5 µM [7]: 29%
IC50 [8]: 12.7 µM
Papp at 4 h [9]: 14.6 ×10⁻⁶ cm/s

c1ccc2c(c1)CN[C@@H](CN(CCC1CCNCC1)[C@H]1CCCc3cccnc31)C2
Activity [1]: inactive
IC50 [2]: > 14 µM
remaining at 10 min, 0.5 µM [3]: 32%
remaining at 10 min, 0.5 µM [4]: 66%
IC50 [5]: 1.04 µM
IC50 [6]: 0.15 µM
remaining at 10 min, 0.5 µM [7]: 17%
IC50 [8]: > 12 µM
Papp at 4 h [9]: 1.9 ×10⁻⁶ cm/s

NCCCCN(Cc1nc2ccccc2[nH]1)[C@H]1CCCc2cccnc21 [MAVORIXAFOR]
Activity [1]: inactive
IC50 [2]: > 17 µM

c1ccc2c(c1)CN[C@@H](CN(CC[C@H]1CCCNC1)[C@H]1CCCc3cccnc31)C2
Ratio IC50 [14]: 100 to 1000
Ratio IC50 [15]: 100 to 1000
Activity [1]: inactive
IC50 [10]: 11.3 µM
IC50 [2]: > 14 µM
remaining at 10 min, 0.5 µM [3]: 56%
remaining at 10 min, 0.5 µM [4]: 93%
Ratio IC50 [16]: < 100
IC50 [5]: 0.11 µM
IC50 [6]: 0.016 µM
remaining at 10 min, 0.5 µM [7]: 55%
IC50 [11]: 10.7 µM
Ratio IC50 [17]: < 100
IC50 [12]: 11.3 µM
IC50 [8]: > 12 µM
IC50 [13]: 5.9 µM
Papp at 4 h [9]: 5.5 ×10⁻⁶ cm/s

c1cnc(CN(CCCN2CCNCC2)[C@H]2CCCc3cccnc32)nc1
Activity [1]: inactive
IC50 [2]: > 17 µM
remaining at 10 min, 0.5 µM [3]: 78%
remaining at 10 min, 0.5 µM [4]: 100%
IC50 [5]: > 20 µM
remaining at 10 min, 0.5 µM [7]: 68%
IC50 [8]: > 20 µM
Papp at 4 h [9]: 3.1 ×10⁻⁶ cm/s

c1cnc2c(c1)CCC[C@@H]2N(CCCN1CCNCC1)Cc1nc2ccccc2s1
Activity [1]: inactive
IC50 [2]: > 17 µM
remaining at 10 min, 0.5 µM [3]: 45%
remaining at 10 min, 0.5 µM [4]: 50%
IC50 [5]: > 20 µM
remaining at 10 min, 0.5 µM [7]: 21%
IC50 [8]: 9.4 µM

c1ccc2c(c1)CN[C@@H](CN(CCCCN1CCNCC1)[C@H]1CCCc3cccnc31)C2
Activity [1]: inactive
IC50 [2]: > 14 µM
remaining at 10 min, 0.5 µM [3]: 96%
remaining at 10 min, 0.5 µM [4]: 82%
IC50 [5]: 1.43 µM
IC50 [6]: 0.066 µM
remaining at 10 min, 0.5 µM [7]: 15%
IC50 [8]: > 12 µM
Papp at 4 h [9]: 1.4 ×10⁻⁶ cm/s

c1ccc2c(c1)CN[C@@H](CN(CCN1CCNCC1)[C@H]1CCCc3cccnc31)C2
Activity [1]: inactive
IC50 [2]: > 14 µM
remaining at 10 min, 0.5 µM [3]: 79%
remaining at 10 min, 0.5 µM [4]: 96%
IC50 [5]: 4.21 µM
IC50 [6]: 0.553 µM
remaining at 10 min, 0.5 µM [7]: 62%
Ratio IC50 [17]: < 100
IC50 [8]: > 12 µM
Papp at 4 h [9]: 1 ×10⁻⁶ cm/s
